This passage reports IC50 results from ChEMBL document CHEMBL4706632, “Development of Potential Antitumor Agents from the Scaffolds of Plant-Derived Terpenoid Lactones” (J Med Chem, 2020).

Test [1] has as its system MDA-MB-435. Put plainly: Antiproliferative activity against human MDA-MB-435 cells incubated for 48 hrs by [3H]-thymidine incorporation assay. It counts as functional, cell-based.
Test [2] has as its system MCF7. Put plainly: Antiproliferative activity against human MCF7 cells incubated for 48 hrs by [3H]-thymidine incorporation assay. It is filed as functional, cell-based. On the technique in general: Incorporation of labelled thymidine or its analogues reports DNA synthesis.
The subject of test [3] is P388. Put plainly: Antiproliferative activity against mouse P388 cells. It counts as functional, cell-based.
The subject of test [4] is AGS. Put plainly: Cytotoxicity against human AGS cells incubated for 48 hrs by MTT assay. It is filed as functional, cell-based.
In test [5] the test system is HeLa. Kind of test: Cytotoxicity against human HeLa cells incubated for 48 hrs by MTT assay. It counts as functional, cell-based. A general note: Formazan colour is commonly taken as a measure of viable cells.
In test [6] the test system is MDA-MB-231. Put plainly: Cytotoxicity against human MDA-MB-231 cells incubated for 48 hrs by MTT assay. It counts as functional, cell-based. The note with it: MDA-MB-231, 48 h.
Test [7] concerns PANC-1. Kind of test: Cytotoxicity against human Panc-1 cells incubated for 48 hrs by MTT assay. It counts as functional, cell-based. As to conditions: PANC-1, 48 h.
For test [8], the system named is HepG2. Kind of test: Cytotoxicity against human HepG2 cells incubated for 48 hrs by MTT assay. It counts as functional, cell-based. As to conditions: HepG2, 48 h.
The nature of test [9]: Inhibition of PAFR in New Zealand rabbit platelets assessed as reduction in PAF-induced platelet aggregation measured within 5 mins by aggregometry analysis. It counts as tissue-based. The note with it: Oryctolagus cuniculus.
Test [10] relates to HCT-116. Put plainly: Antiproliferative activity against human HCT-116 cells incubated for 72 hrs by WST-1 assay. It is filed as functional, cell-based. As to conditions: HCT-116, 72 h.
Test [11] concerns WM 266-4. Kind of test: Cytotoxicity against human WM 266-4 cells incubated for 72 hrs by ATPlite assay. It counts as functional, cell-based. The note with it: WM 266-4, 72 h. In general terms: ATP-based viability assays read luminescence as a measure of living cells.
The test system of test [12] is HCT-116. Put plainly: Cytotoxicity against human HCT116 cells incubated for 72 hrs by ATPlite assay. It counts as functional, cell-based. The note with it: HCT-116, 72 h.
For test [13], the system named is MDA-MB-231. Put plainly: Cytotoxicity against human MDA-MB-231 cells incubated for 72 hrs by MTT assay. It counts as functional, cell-based. As to conditions: MDA-MB-231, 72 h.
For test [14], the system named is MCF7. Put plainly: Cytotoxicity against human MCF-7 cells incubated for 72 hrs by MTT assay. It counts as functional, cell-based. As to conditions: MCF7, 72 h.

Each structure is given as a SMILES string. Bounds are passed on as bounds.

For `CC1(C)OC(=O)C[C@H](O)[C@]2(C)[C@H]3CC[C@@]4(C)[C@H](c5ccoc5)OC(=O)[C@H]5O[C@]54[C@]3(C)C(=O)C[C@@H]12`, the IC50 (commonly the concentration at which inhibition is half-maximal) in test [1] was 150 nM; in test [2] it was 10 nM.
As for `CC(=O)O[C@@H]1C[C@H](O)[C@@]23COC(O)[C@]1(C)[C@@H]2C[C@@H](O)[C@]1(C)[C@@H]3C(=O)C[C@@]2(C)[C@H](c3ccoc3)C[C@H]3O[C@@]312` (stereo partly specified), the IC50 in test [3] is under 1.9 nM.
With `CC(C)c1oc(=O)cc2c1[C@@H](O)[C@H]1OC(=O)[C@@]3(C)[C@@H](O)[C@H]4O[C@H]4[C@@]2(C)[C@@H]13` [NAGILACTONE C], the half-maximal inhibitory concentration (IC50) in test [4] is 2300 nM; in test [5] it was 3300 nM; in test [6] it was 5000 nM; in test [7], over 40000 nM; in test [8], 14000 nM.
For the compound `Cc1ccccc1Cn1cc(CO[C@H]2C(=O)O[C@H]3O[C@]45C(=O)O[C@@H]6C[C@@H](C(C)(C)C)[C@@]32[C@@]64C[C@@H]2OC(=O)[C@@H](C)[C@@]25O)nn1`, the IC50 in [9] stood at 71 nM.
The compound `COC(=O)[C@@]12OC[C@]34[C@H]([C@@H](O)[C@@H]1O)[C@@]1(C)CC(=O)C(O)=C(C)[C@@H]1C[C@H]3OC(=O)[C@H](OC(C)=O)[C@@H]24` [BRUCEINE B] displayed a half-maximal inhibitory concentration (IC50) in test [10] of 99 nM.
Take `CC(=O)O[C@@]1(C)COC2(C1)OC(=O)[C@H]([C@@H]1CC[C@]34C[C@]13C=C[C@@H]1[C@@]3(C)CC=C5C[C@@H](Cc6ccccc6)OC[C@]5(C)[C@@H]3CC(=O)[C@]14C)[C@H]2O` (stereo partly specified): the 50% inhibitory concentration (IC50) in test [11] was 230 nM; in [12], 58 nM.
With `C[C@@]12C3=CC(=O)O[C@H]([C@H](O)CO)[C@]34O[C@@H]4[C@H]3OC(=O)[C@](C)([C@H]31)[C@@H](O)[C@H]1O[C@H]12`, the IC50 in test [4], in test [5], in test [6], in test [7] and in [8] was over 40000 nM each time.
As for `CC(C)[C@H]1OC(=O)C=C2C1=C[C@H]1OC(=O)[C@@]3(C)C[C@@H](O)C[C@@]2(C)[C@@H]13`, the concentration for half-maximal inhibition (IC50) was 370 nM in test [4]; 900 nM in test [5]; 1100 nM in test [6]; 3100 nM in test [7]; 3700 nM in [8].
With `C/C(C=O)=C\[C@H]1C[C@@H]([C@@H]2CC[C@]34C[C@]23C=C[C@@H]2[C@@]3(C)CC=C5C[C@@H](c6ccccc6)OC[C@]5(C)[C@@H]3C[C@@H](O)[C@]24C)C(=O)O1`, the IC50 in [11] is 1500 nM; in test [12], 92 nM.
In test [3], `C=C[C@H]1OC(=O)C=C2C1=C[C@H]1OC(=O)[C@@]3(C)CCC[C@@]2(C)[C@@H]13` came in with a half-maximal inhibitory concentration (IC50) of 160 nM.
On the same count and under the same terms, next, `C=C1[C@@H](O)C[C@H]2C(C)(C)[C@@H](Cl)[C@H](Cl)C[C@]2(C)[C@H]1C[C@H](O)[C@H]1CC(=O)NC1=O` [DICHLOROLISSOCLIMIDE]: 2 nM.
Turning to `CC(C)[C@H]1OC(=O)C=C2C1=C[C@H]1OC(=O)[C@@]3(C)CCC[C@@]2(C)[C@@H]13` [NAGILACTONE F], the IC50 in [4] is 500 nM; in test [5], 720 nM; in [6], 1000 nM; in test [7], 19000 nM; in test [8] it was 1300 nM; in test [3], 280 nM.
On to `CC(O)(CO)[C@H]1C[C@H](O)[C@@H]([C@@H]2CC=C3[C@]4(C)[C@H](O)C[C@@H]5[C@](C)(CC=C6C[C@@H](Cc7ccccc7)OC[C@@]65C)[C@H]4CC[C@]32C)[C@@H](O)O1` (stereo partly specified), for which the figures for the IC50 in test [11] and in test [12] were 31000 nM and 4200 nM, respectively.
As to `C[C@]1(O)COC2(C[C@@H]([C@@H]3CC[C@]45C[C@]34C=C[C@@H]3[C@@]4(C)CC=C6C[C@@H](Cc7ccccc7)OC[C@]6(C)[C@@H]4C[C@@H](O)[C@]35C)C(=O)O2)C1` (stereo partly specified), the half-maximal inhibitory concentration (IC50) came to 1300 nM in test [11] and 450 nM in test [12].
Turning to `Cc1ccccc1Cn1cc(CO[C@H]2C(=O)O[C@H]3O[C@]45C(=O)O[C@@H]6C[C@@H](C(C)(C)C)[C@@]32[C@@]64[C@@H](O)[C@@H]2OC(=O)[C@@H](C)[C@@]25O)nn1`, the IC50 in test [9] amounted to 5.7 nM.
On to `COC(=O)[C@@]12OC[C@]34[C@H]([C@@H](O)[C@@H]1O)[C@@]1(C)C=C(O[C@@H]5O[C@H](CO)[C@@H](O)[C@H](O)[C@H]5O)C(=O)[C@@H](C)[C@@H]1C[C@H]3OC(=O)[C@H](OC(=O)C=C(C)C)[C@@H]24` [BRUCEOSIDE A], for which the IC50 in [13] and in test [14] was over 50000 nM in each case.
As for `CC(=O)O[C@@]1(C)COC2(C1)OC(=O)[C@H]([C@@H]1CC[C@]34C[C@]13C=C[C@@H]1[C@@]3(C)CC=C5C[C@@H](Cc6ccccc6)OC[C@]5(C)[C@@H]3[C@@H](O)C(=O)[C@]14C)[C@H]2O` (stereo partly specified), the IC50 was found to be 78 nM in [11] and 9.9 nM in [12].
The compound `CC(=O)OC1OC[C@@]23[C@H]4C(=O)C(OC(C)=O)[C@@]5(C)[C@H](c6ccoc6)C[C@H]6O[C@]65[C@]4(C)[C@H](O)C[C@H]2[C@]1(C)[C@H](OC(C)=O)C[C@@H]3O` (stereo partly specified) came in with an IC50 in test [3] of 16 nM.
In the case of `CC(=O)O[C@H]1CC(=O)OC(C)(C)[C@@H]2CC(=O)[C@]3(C)[C@H](CC[C@@]4(C)[C@H](c5ccoc5)OC(=O)[C@H]5O[C@]543)[C@@]12C`, the 50% inhibitory concentration (IC50) in test [1] came to 780 nM; in [2], 97 nM.
For the compound `CC(=O)O[C@@H]1C[C@H](O)[C@@]23COC(O)[C@]1(C)[C@@H]2C[C@@H](O)[C@@]1(C)[C@@H]2C(=O)C[C@@H](c4ccoc4)[C@]2(C)CC(=O)[C@@H]13` (stereo partly specified), half-maximal inhibition in test [3] (IC50) required 58000 nM.
Consider `C=C[C@H]1OC(=O)C=C2[C@]3(C)[C@H]4[C@H](OC(=O)[C@@]4(C)[C@@H](O)[C@H]4O[C@H]43)[C@H]3O[C@@]231`, for which the 50% inhibitory concentration (IC50) in test [4] was found to be 550 nM; in [5], 620 nM; in test [6] it was 660 nM; in [7] it was 8500 nM; in test [8], 3500 nM.
In test [3], `C=C1[C@@H](O)C[C@H]2C(C)(C)C[C@H](Cl)C[C@]2(C)[C@H]1C[C@H](O)[C@H]1CC(=O)NC1=O` [CHLOROLISSOCLIMIDE] registered an IC50 of 4 nM.
As to `C/C(=C\[C@@H]1OC(=O)[C@H]([C@@H]2CC[C@]34C[C@]23C=C[C@@H]2[C@@]3(C)CC=C5C[C@@H](c6ccccc6)OC[C@]5(C)[C@@H]3C[C@@H](O)[C@]24C)[C@H]1O)CO`, the IC50 came out at 340 nM in test [11] and 81 nM in [12].
With `Cc1ccccc1Cn1cc(CO[C@H]2C(=O)O[C@H]3O[C@]45C(=O)O[C@@H]6[C@H](O)[C@@H](C(C)(C)C)[C@@]32[C@@]64[C@@H](O)[C@@H]2OC(=O)[C@@H](C)[C@@]25O)nn1`, the half-inhibitory concentration (IC50) in test [9] turned out to be 38 nM.
In the case of `CC1(C)O[C@H]2CC(=O)OC[C@@]23[C@H]1CC(=O)[C@@]1(C)C2=CC(=O)O[C@@H](c4ccoc4)[C@]2(C)CC[C@@H]13`, the 50% inhibitory concentration (IC50) in test [1] was 1700 nM; in test [2], 5500 nM.
With `C[C@@H](O)[C@H]1OC(=O)C=C2[C@]3(C)[C@H]4[C@H](OC(=O)[C@@]4(C)[C@@H](O)[C@H]4O[C@H]43)[C@H]3O[C@@]231`, the concentration for half-maximal inhibition (IC50) in test [4] was determined as 1300 nM; in test [5] it was 1800 nM; in test [6], 3000 nM; in test [7], 16000 nM; in test [8], 11000 nM.
